Source: patent publication US20170000749A1, “Methods for Treating Cognitive Disorders Using Inhibitors of Histone Deacetylase” (Forum Pharmaceuticals, Inc., priority 2008, published 2017)
Read-outs that look alike come from different tables or passages of the source.

How the values were obtained:
[1] = target: one or more of HDAC-1, HDAC-2, HDAC-3, HDAC-4, HDAC-5, HDAC-6, HDAC-7, HDAC-8, HDAC-9, HDAC-10 and HDAC-11; test: Inhibition of Histone Deacetylase Enzymatic Activity (Boc-Lys(Ac)-AMC substrate, Fluor-de-Lys developer); assay type: biochemical; details: read-out: HDAC Inhibition (IC50 μM) HDAC Enzyme
Procedure: The following protocol is used to assay the compounds of the disclosure.
The mixture is pre-incubated for 5 minutes at room temperature. The reaction is started by bringing the temperature to 37° C. and adding 16 μl substrate. Total reaction volume is 50 μl.
In the Tables 8, 9 and 10, A≦0.05 μM; 0.05 μM<B≦0.1 μM; 0.1 μM<C≦1 μM; and 1 μM<D≦10 μM.

[2] = system: HDAC activity in primary mouse cortical cultures; test: Whole-Cell Histone Deacetylase (HDAC) Inhibition Assay in Primary Mouse Cortical Cultures; assay type: cell-based; details: whole-cell (WC), mouse cortical neurons, read-out: HDAC Inhibition (IC50 μM) WC mouse cortical neurons
Procedure: Primary neocortical cultures are established through the dissection of the neocortex from E17 embryos harvested from time-pregnant Balb/C mice. Following dissection, the neocortical tissue specimens undergo digestion by incubation at 37° C. for 10 minutes in dissection medium (1×HBSS/10 mM HEPES/1 mM Sodium Pyruvate) supplemented with (0.25%) Trypsin and (0.1%) DNase I. Digested tissue is washed and resuspended in plating medium (NeuroBasal/10% HS/0.5 mM L-Glutamine (Invitrogen Corporation)) for trituration. Additional plating medium is added, and the contents are passed over a 70 um cell-strainer. The cell-density is quantified using a hemacytometer, and dilutions are made to allow for the plating of 50000 cells/well/100 uL in 96-well PDL-coated plates. Plates are incubated for 4-5 hours in 37° C./5% CO2-incubator, after which time the entire volume is exchanged to feeding medium (NeuroBasal/2% B-27 Serum-free supplement/0.5 mM L-Glutamine/1% Penicillin-Streptomycin (Invitrogen Corporation)). The cultures undergo two 50% fresh feeding medium exchanges at 3 days in vitro (DIV3), and again at DIV7.
Compounds for testing are resuspended in dimethyl sulphoxide (DMSO), and further diluted in DMSO for a ten-point dose-response curve, with appropriate controls. Each master plate is assayed in triplicate. […] Three DIV9 culture plates are leveled to 50 uL/well, onto which each has overlaid 50 uL/well of the diluted daughter plate. The plates are returned to the 37° C./5% CO2-incubator for 16-18 hours.
The next step of the assay involves the exposure of a HDAC colorimetric substrate, comprising an acetylated lysine side chain, to the compound-treated neuronal cultures. Based on the ability of the compound to inhibit HDAC activity in the neuronal cultures, the substrate is deacetylated by HDACs, and subsequently sensitized. […] Compound-incubated culture plates are again leveled to 50 uL/well and 2 uL/well of 7.5 mM BOC-Lys (Ac)-AMC substrate is added and thoroughly mixed. Plates are returned to the 37° C./5% CO2-incubator for 1 hour.
The final addition to the culture plates entails treatment with a Fluor de Lys™-based developer (BIOMOL Research Laboratories, Inc.) to produce a fluorophore, which is analyzed using a spectrophotometer. The developer solution (1×Fluor de Lys™/1% NP-40/1 uM TSA in HDAC Buffer Solution) is prepared, and 50 uL/well is added to each of the wells of the culture plates. […] The plates are returned to the 37° C./5% CO2-incubator for 10-15 minutes, after which time, they are removed and set in the dark at room temperature for 5-10 minutes.
Primary neocortical cultures were established through the dissection of the neocortex from E17 embryos harvested from time-pregnant Balb/C mice. Following dissection, the neocortical tissue specimens underwent digestion by incubation at 37° C. for 10 minutes in dissection medium (1×HBSS/10 mM HEPES/1 mM Sodium Pyruvate) supplemented with (0.25%) Trypsin and (0.1%) DNase I. Digested tissue was washed and resuspended in plating medium (NeuroBasal/10% HS/0.5 mM L-Glutamine (Invitrogen Corporation)) for trituration. Additional plating medium was added, and the contents passed over a 70 um cell-strainer. The cell-density was quantified using a hemacytometer, and dilutions made to allow for the plating of 50000 cells/well/100 uL in 96-well PDL-coated plates. Plates were incubated for 4-5 hours in 37° C./5% CO2-incubator, after which time the entire volume was exchanged to feeding medium (NeuroBasal/2% B-27 Serum-free supplement/0.5 mM L-Glutamine/l % Penicillin-Streptomycin (Invitrogen Corporation)). The cultures underwent two 50% fresh feeding medium exchanges at 3 days in vitro (DIV3), and again at DIV7.
Compounds for testing were resuspended in dimethyl sulphoxide (DMSO), and further diluted in DMSO for a ten-point dose-response curve, with appropriate controls. Each master plate was assayed in triplicate.

| IC50 ([1]; Table 10) [µM] | IC50 ([2]; Table 10) [µM] | IC50 ([1]; Table 9) [µM] | IC50 ([2]; Table 9) [µM] | Compound | also measured |
| --- | --- | --- | --- | --- | --- |
| < 0.05 | < 1 | – | – | O=C(NO)c1cnc(NC(c2ccccc2)c2ccccc2)nc1 [2-(benzhydrylamino)-N-hydroxypyrimidine-5-carboxamide] | – |
| 0.1 to 1 | > 15 | – | – | O=C(NO)c1cnc(OC(c2ccc(F)cc2)c2ccc(F)cc2)nc1 [2-(bis(4-fluorophenyl)methoxy)-N-hydroxypyrimidine-5-carboxamide] | – |
| 1 to 10 | 5 to 15 | – | – | O=C(NO)c1cnc(ON=C(c2ccccc2)c2ccccc2)nc1 [2-(diphenylmethyleneaminooxy)-N-hydroxypyrimidine-5-carboxamide] | – |
| – | – | 0.1 to 1 | 5 to 15 | O=C(NO)c1ccc(N2C[C@@H]3C[C@H]2CN3c2cccc(C(F)(F)F)c2)cc1F [2-fluoro-N-hydroxy-4-((1S,4S)-5-(3-(trifluoromethyl)phenyl)-2,5-diazabicyclo[2.2.1]heptan-2-yl)benzamide] | – |
| – | – | – | – | O=C(NO)c1ccc(C2Nc3ccccc3Oc3ccccc32)cc1 (stereo not drawn) [4-(10,11-dihydrodibenzo[b,f][1,4]oxazepin-11-yl)-N-hydroxybenzamide] | IC50 ([1]; Table 8): < 0.05 µM; IC50 ([2]; Table 8): 1 to 5 µM |
| – | – | 0.1 to 1 | 1 to 5 | N#Cc1cccc(N2C[C@@H]3C[C@H]2CN3c2ccc(C(=O)NO)cc2)c1 [4-((1S,4S)-5-(3-cyanophenyl)-2,5-diazabicyclo[2.2.1]heptan-2-yl)-N-hydroxybenzamide] | – |
| 0.1 to 1 | 5 to 15 | – | – | O=C(NO)c1ccc(CN2C(=O)c3cccnc3N(C3CC3)c3ccccc32)cc1 [4-((11-cyclopropyl-5-oxo-5H-benzo[b]pyrido[2,3-e][1,4]diazepin-6(11H)-yl)methyl)-N-hydroxybenzamide] | – |
| 0.1 to 1 | 1 to 5 | – | – | O=C(CCCCCN1C(=O)c2ccccc2N(C2CC2)c2ccccc21)NO [6-(5-cyclopropyl-11-oxo-5H-dibenzo[b,e][1,4]diazepin-10(11H)-yl)-N-hydroxyhexanamide] | – |
| < 0.05 | 1 to 5 | – | – | O=C(CCCCCN1c2ccccc2CCc2ccccc21)NO [6-(10,11-dihydro-5H-dibenzo[b,f]azepin-5-yl)-N-hydroxyhexanamide] | – |
| 0.1 to 1 | 1 to 5 | – | – | O=C(CCCCCN1C(=O)c2cccnc2N(C2CC2)c2ccccc21)NO [6-(11-cyclopropyl-5-oxo-5H-benzo[b]pyrido[2,3-e][1,4]diazepin-6(11H)-yl)-N-hydroxyhexanamide] | – |
| 0.1 to 1 | 1 to 5 | – | – | O=C(CCCCCCN1C(=O)c2ccccc2N(C2CC2)c2ccccc21)NO [7-(5-cyclopropyl-11-oxo-5H-dibenzo[b,e][1,4]diazepin-10(11H)-yl)-N-hydroxyheptanamide] | – |
| 0.05 to 0.1 | 1 to 5 | – | – | O=C(CCCCCCN1C(=O)c2cccnc2N(C2CC2)c2ccccc21)NO [7-(11-cyclopropyl-5-oxo-5H-benzo[b]pyrido[2,3-e][1,4]diazepin-6(11H)-yl)-N-hydroxyheptanamide] | – |
| 0.1 to 1 | > 15 | – | – | O=C(CCCCCCN1Cc2ccccc2Oc2ccccc21)NO [7-(dibenzo[b,f][1,4]oxazepin-10(11H)-yl)-N-hydroxyheptanamide] | – |
| 0.1 to 1 | < 1 | – | – | O=C(CCCCCCCN1C(=O)c2cccnc2N(C2CC2)c2ccccc21)NO [8-(11-cyclopropyl-5-oxo-5H-benzo[b]pyrido[2,3-e][1,4]diazepin-6(11H)-yl)-N-hydroxyoctanamide] | – |
| 0.1 to 1 | 1 to 5 | – | – | O=C(CCCCCCC(=O)N1Cc2ccccc2Oc2ccccc21)NO [8-(dibenzo[b,f][1,4]oxazepin-10(11H)-yl)-N-hydroxy-8-oxooctanamide] | – |
| – | – | < 0.05 | < 1 | O=C(NO)c1cnc(N2C[C@@H]3C[C@H]2CN3C(=O)OCc2ccccc2)nc1 [(1S,4S)-benzyl 5-(5-(hydroxycarbamoyl)pyrimidin-2-yl)-2,5-diazabicyclo[2.2.1]heptane-2-carboxylate] | – |
| – | – | < 0.05 | < 1 | O=C(NO)c1cnc(N2C[C@@H]3C[C@H]2CN3C(=O)OC2CCCC2)nc1 [(1S,4S)-cyclopentyl 5-(5-(hydroxycarbamoyl)pyrimidin-2-yl)-2,5-diazabicyclo[2.2.1]heptane-2-carboxylate] | – |
| – | – | < 0.05 | < 1 | O=C(NO)c1cnc(N2C[C@@H]3C[C@H]2CN3C(=O)OCC2CC2)nc1 [(1S,4S)-cyclopropylmethyl 5-(5-(hydroxycarbamoyl)pyrimidin-2-yl)-2,5-diazabicyclo[2.2.1]heptane-2-carboxylate] | – |
| – | – | < 0.05 | < 1 | CC(C)COC(=O)N1C[C@@H]2C[C@H]1CN2c1ncc(C(=O)NO)cn1 [(1S,4S)-isobutyl 5-(5-(hydroxycarbamoyl)pyrimidin-2-yl)-2,5-diazabicyclo[2.2.1]heptane-2-carboxylate] | – |
| – | – | < 0.05 | < 1 | CC(C)OC(=O)N1C[C@@H]2C[C@H]1CN2c1ncc(C(=O)NO)cn1 [(1S,4S)-isopropyl 5-(5-(hydroxycarbamoyl)pyrimidin-2-yl)-2,5-diazabicyclo[2.2.1]heptane-2-carboxylate] | – |
| – | – | < 0.05 | < 1 | O=C(NO)c1cnc(N2C[C@@H]3C[C@H]2CN3C(=O)OCc2cccnc2)nc1 [(1S,4S)-pyridin-3-ylmethyl 5-(5-(hydroxycarbamoyl)pyrimidin-2-yl)-2,5-diazabicyclo[2.2.1]heptane-2-carboxylate] | – |
| – | – | < 0.05 | < 1 | CC(C)(C)OC(=O)N1C[C@@H]2C[C@H]1CN2c1ncc(C(=O)NO)cn1 [(1S,4S)-tert-butyl 5-(5-(hydroxycarbamoyl)pyrimidin-2-yl)-2,5-diazabicyclo[2.2.1]heptane-2-carboxylate] | – |
| – | – | < 0.05 | < 1 | O=C(NO)c1cnc(N2C[C@@H]3C[C@H]2CN3C(=O)OC2CCOCC2)nc1 [(1S,4S)-tetrahydro-2H-pyran-4-yl 5-(5-(hydroxycarbamoyl)pyrimidin-2-yl)-2,5-diazabicyclo[2.2.1]heptane-2-carboxylate] | – |
| – | – | – | – | O=C(NO)c1cnc(N2CCN(C3=Nc4ccccc4Oc4ccc(Cl)cc43)CC2)nc1 [(E)-2-(4-(2-chlorodibenzo[b,f][1,4]oxazepin-11-yl)piperazin-1-yl)-N-hydroxypyrimidine-5-carboxamide] | IC50 ([1]; Table 8): < 0.05 µM; IC50 ([2]; Table 8): 5 to 15 µM |
| < 0.05 | < 1 | – | – | O=C(/C=C/c1ccc(CN2C(=O)c3cccnc3N(C3CC3)c3ccccc32)cc1)NO [(E)-3-(4-((11-cyclopropyl-5-oxo-5H-benzo[b]pyrido[2,3-e][1,4]diazepin-6(11H)-yl)methyl)phenyl)-N-hydroxyacrylamide] | – |
| 0.05 to 0.1 | 1 to 5 | – | – | O=C(/C=C/c1ccc(CN2c3ccccc3C=Cc3ccccc32)cc1)NO [(E)-3-(4-(((Z)-5H-dibenzo[b,f]azepin-5-yl)methyl)phenyl)-N-hydroxyacrylamide] | – |
| 0.1 to 1 | 5 to 15 | – | – | O=C(/C=C/c1ccc2c(c1)C=Cc1ccccc1N2CC1CC1)NO [(E)-3-((Z)-5-(cyclopropylmethyl)-5H-dibenzo[b,f]azepin-2-yl)-N-hydroxyacrylamide] | – |
